Values after ≈ are worked out from the molar mass of the structure shown.
Key:
[1] = tested on: antiserum raised to Immunogen C (Hapten-C-BTG); assay: Competitive ELISA with antiserum raised to Immunogen C and Conjugate C (Hapten-C-HRP) as detection reagent; type: binding, sheep; settings: for % CR (percentage cross-reactivity based on specificity to Zaleplon) / IC50 (standard concentration which produces 50% B/B0): antiserum to Immunogen C, Conjugate C
[2] = tested on: antiserum raised to Immunogen A (Hapten-A-BTG); assay: Competitive ELISA with antiserum raised to Immunogen A and Conjugate A (Hapten-A-HRP) as detection reagent; type: binding, sheep
Procedure: Aqueous solutions of the immunogens prepared in Examples 6 and 12 were formulated with Freund's Complete Adjuvant (FCA) to form emulsions of Immunogen A and Immunogen [[B]]C in 50% (v/v) FCA. Individual sheep were immunised with the emulsions of Immunogen A and Immunogen C (primary immunisations), 0.25 ml being subcutaneously injected in the flank of each animal. Subsequent boosts of emulsified immunogens in 50% (v/v) Freund's Incomplete Adjuvant (FIA) were at monthly intervals for 1 year. Blood sampling took place 7-14 days after each boost. Each sample was processed to produce antisera which were further purified by caprylic acid and ammonium sulfate precipitated to yield an immunoglobulin G (IgG) fraction. The IgG fraction was evaluated by competitive ELISA microtitre plate assay, as described in Example 15.
The wells of an enhanced binding 96 well polystyrene microtitre plate were coated with the IgG fraction of the antiserum raised to Immunogen A Hapten A-BTG diluted in 10 mM Tris, pH8.5 (125 μl/well). The appropriate antibody coating dilution was determined using standard ELISA chequerboard techniques. The plate was incubated for 2 hours at 37° C., washed 4 times with Tris buffered saline containing Tween 20 (TBST) and tapped dry. […] 75 μl of Conjugate A (Hapten A-HRP), diluted in Tris buffer containing EDTA, D-mannitol, sucrose, thimerosal and BSA, was added to each of the wells. The appropriate dilution of conjugate was also determined using standard ELISA chequerboard techniques. The plate was incubated at 25° C. for 1 hour. The excess unbound conjugate was removed by washing 6 times over a 10 minute period with TBST. 125 μl of tetramethylbenzedine (TMB) substrate solution was added to each well of the plate and incubated for 20 minutes in the dark at room temperature. The reaction was stopped by the addition of 125 μl of 0.2M H2SO4 to each well. The absorbance was then measured at 450 nm using a microtitre plate reader.

[3] = standard concentration 0.156 ng/ml
[4] = standard concentration 0.313 ng/ml
[5] = standard concentration 0.625 ng/ml
[6] = standard concentration 1.250 ng/ml
[7] = standard concentration 2.500 ng/ml
[8] = standard concentration 5.000 ng/ml
[9] = standard concentration 10.000 ng/ml
[10] = antiserum to Immunogen A, Conjugate A
[11] = standard concentration 0.025 ng/ml
[12] = standard concentration 0.050 ng/ml
[13] = standard concentration 0.100 ng/ml
[14] = standard concentration 0.200 ng/ml
[15] = standard concentration 0.400 ng/ml
[16] = standard concentration 0.800 ng/ml
[17] = standard concentration 1.600 ng/ml

Compound: CC(=O)N(C)c1cccc(-c2ccnc3c(C(=O)c4cccs4)cnn23)c1 [Indiplon, indiplon]
- % CR (percentage cross-reactivity based on specificity to Zaleplon) [1]: 22%
- IC50 (standard concentration which produces 50% B/B0) [1]: 1.967 ng/mL (≈ 5.23 nM)
- % B/B0 [1, 3]: 84%
- A450 [1, 3]: 1.831
- % B/B0 [1, 4]: 77%
- A450 [1, 4]: 1.664
- % B/B0 [1, 5]: 67%
- A450 [1, 5]: 1.455
- % B/B0 [1, 6]: 57%
- A450 [1, 6]: 1.234
- % B/B0 [1, 7]: 46%
- A450 [1, 7]: 1.006
- % B/B0 [1, 8]: 36%
- A450 [1, 8]: 0.778
- % B/B0 [1, 9]: 27%
- A450 [1, 9]: 0.579
- % CR (percentage cross-reactivity based on specificity to Zaleplon) [2, 10]: <0.63%
- IC50 (standard concentration which produces 50% B/B0) [2, 10]: >10 ng/mL
- % B/B0 [2, 3]: 96%
- A450 [2, 3]: 2.063
- % B/B0 [2, 4]: 94%
- A450 [2, 4]: 2.019
- % B/B0 [2, 5]: 93%
- A450 [2, 5]: 1.982
- % B/B0 [2, 6]: 99%
- A450 [2, 6]: 2.112
- % B/B0 [2, 7]: 88%
- A450 [2, 7]: 1.877
- % B/B0 [2, 8]: 91%
- A450 [2, 8]: 1.940
- % B/B0 [2, 9]: 90%
- A450 [2, 9]: 1.931

Compound: CCN(C(C)=O)c1cccc(-c2ccnc3c(C#N)cnn23)c1 [Zaleplon, zaleplon]
- % CR (percentage cross-reactivity based on specificity to Zaleplon) [1]: 100%
- IC50 (standard concentration which produces 50% B/B0) [1]: 0.432 ng/mL (≈ 1.41 nM)
- % B/B0 [1, 3]: 65%
- A450 [1, 3]: 1.487
- % B/B0 [1, 4]: 54%
- A450 [1, 4]: 1.236
- % B/B0 [1, 5]: 45%
- A450 [1, 5]: 1.021
- % B/B0 [1, 6]: 36%
- A450 [1, 6]: 0.825
- % B/B0 [1, 7]: 27%
- A450 [1, 7]: 0.610
- % B/B0 [1, 8]: 20%
- A450 [1, 8]: 0.457
- % B/B0 [1, 9]: 15%
- A450 [1, 9]: 0.337
- % CR (percentage cross-reactivity based on specificity to Zaleplon) [2, 10]: 100%
- IC50 of zaleplon-specific antibody ([2]; as stated in the description): 0.063 ng/mL
- % B/B0 [2, 11]: 72%
- A450 [2, 11]: 1.542
- % B/B0 [2, 12]: 55%
- A450 [2, 12]: 1.180
- % B/B0 [2, 13]: 40%
- A450 [2, 13]: 0.860
- % B/B0 [2, 14]: 28%
- A450 [2, 14]: 0.602
- % B/B0 [2, 15]: 19%
- A450 [2, 15]: 0.406
- % B/B0 [2, 16]: 13%
- A450 [2, 16]: 0.286
- % B/B0 [2, 17]: 10%
- A450 [2, 17]: 0.211

From US8852953B2, “Immunodetection and quantification of pyrazolopyrimidine sedatives” (Randox Laboratories Ltd., priority 2009, dated 2014)
